Measured values taken from patent US9399635B2, “Pyrazole derivative” (GREEN TECH CO., LTD., priority 2011, dated 2016).

For `C(=C\c1cc(/C=C/c2ccc3[nH]ccc3c2)[nH]n1)/c1ccc(OCc2ccccn2)cc1` [Example 4, 3-[(1E)-2-(1H-indol-5-yl)ethenyl]-5-[(1E)-2-[4-(2-pyridylmethoxy)phenyl]ethenyl]-1H-pyrazole], the melting point was 95 to 102 °C. `COc1cc(/C=C/c2cc(/C=C/c3ccc4[nH]ccc4c3)[nH]n2)ccc1OCc1ccccn1` [Example 5, 3-[(1E)-2-(1H-indol-5-yl)ethenyl]-5-[(1E)-2-[3-methoxy-4-(2-pyridylmethoxy)phenyl]ethenyl]-1H-pyrazole] showed a melting point of 96 to 101 °C. In the case of `COc1ccc(/C=C/c2cc(/C=C/c3ccc4[nH]ccc4c3)[nH]n2)cc1OCc1ccccn1` [Example 6, 3-[(1E)-2-(1H-indol-5-yl)ethenyl]-5-[(1E)-2-[4-methoxy-3-(2-pyridylmethoxy)phenyl]ethenyl]-1H-pyrazole], the melting point is reported as 109 to 118 °C. With `C(=C\c1cc(/C=C/c2ccc3[nH]ccc3c2)[nH]n1)/c1cccc(OCc2ccccn2)c1` [Example 7, 3-[(1E)-2-(1H-indol-5-yl)ethenyl]-5-[(1E)-2-[3-(2-pyridylmethoxy)phenyl]ethenyl]-1H-pyrazole] the melting point was 183 to 186 °C. `C(=C\c1cc(/C=C/c2c[nH]c3ccccc23)[nH]n1)/c1ccc(OCc2ccccn2)cc1` [Example 10, 3-[(1E)-2-(1H-indol-3-yl)ethenyl]-5-[(1E)-2-[4-(2-pyridylmethoxy)phenyl]ethenyl]-1H-pyrazole] showed a melting point of 196 to 199 °C. Compound `COc1cc(/C=C/c2cc(/C=C/c3c[nH]c4ccccc34)[nH]n2)ccc1OCc1ccccn1` [Example 11, 3-[(1E)-2-(1H-indol-3-yl)ethenyl]-5-[(1E)-2-[3-methoxy-4-(2-pyridylmethoxy)phenyl]ethenyl]-1H-pyrazole] has a melting point of 120 to 130 °C. For `COc1ccc(/C=C/c2cc(/C=C/c3c[nH]c4ccccc34)[nH]n2)cc1OCc1ccccn1` [Example 12, 3-[(1E)-2-(1H-indol-3-yl)ethenyl]-5-[(1E)-2-[4-methoxy-3-(2-pyridylmethoxy)phenyl]ethenyl]-1H-pyrazole], the melting point was 232 to 243 °C. With `C(=C\c1cc(/C=C/c2c[nH]c3ccccc23)[nH]n1)/c1cccc(OCc2ccccn2)c1` [Example 13, 3-[(1E)-2-(1H-indol-3-yl)ethenyl]-5-[(1E)-2-[3-(2-pyridylmethoxy)phenyl]ethenyl]-1H-pyrazole] the melting point was 198 to 201 °C. For `C(=C\c1cc(/C=C/c2ccc3cc[nH]c3c2)[nH]n1)/c1ccc(OCc2ccccn2)cc1` [Example 16, 3-[(1E)-2-(1H-indol-6-yl)ethenyl]-5-[(1E)-2-[4-(2-pyridylmethoxy)phenyl]ethenyl]-1H-pyrazole], the melting point was 211 to 214 °C. Compound `COc1cc(/C=C/c2cc(/C=C/c3ccc4cc[nH]c4c3)[nH]n2)ccc1OCc1ccccn1` [Example 17, 3-[(1E)-2-(1H-indol-6-yl)ethenyl]-5-[(1E)-2-[3-methoxy-4-(2-pyridylmethoxy)phenyl]ethenyl]-1H-pyrazole] has a melting point of 236 to 243 °C. In the case of `COc1ccc(/C=C/c2cc(/C=C/c3ccc4cc[nH]c4c3)[nH]n2)cc1OCc1ccccn1` [Example 18, 3-[(1E)-2-(1H-indol-6-yl)ethenyl]-5-[(1E)-2-[4-methoxy-3-(2-pyridylmethoxy)phenyl]ethenyl]-1H-pyrazole], the melting point is reported as 110 to 117 °C. `C(=C\c1cc(/C=C/c2ccc3cc[nH]c3c2)[nH]n1)/c1cccc(OCc2ccccn2)c1` [Example 19, 3-[(1E)-2-(1H-indol-6-yl)ethenyl]-5-[(1E)-2-[3-(2-pyridylmethoxy)phenyl]ethenyl]-1H-pyrazole] showed a melting point of 193 to 195 °C. Compound `COc1c(/C=C/c2cc(/C=C/c3ccc4cc[nH]c4c3)[nH]n2)cccc1OCc1ccccn1` [Example 22, 3-[(1E)-2-(1H-indol-6-yl)ethenyl]-5-[(1E)-2-[2-methoxy-3-(2-pyridylmethoxy)phenyl]ethenyl]-1H -pyrazole] has a melting point of 109 to 114 °C.
